{"source": "paper PMC10847306", "about": "“The antibacterial activity and mechanism of a novel peptide MR-22 against multidrug-resistant Escherichia coli” (Frontiers in Cellular and Infection Microbiology, 2024)", "test_system": "E. coli E19", "assay": "Mice peritonitis model", "format": "in vivo", "details": "C57BL/6J mice", "description": "This study utilized female C57BL/6J mice aged 6-8 weeks, weight range of 18-20 g, which were obtained from SPF Biotechnology Co., Ltd (Beijing, China). The animals were housed under maintained on a standard 12 h light/12 h dark cycle. All animal experiments were conducted in accordance with the Ethical Principles in Animal Research adopted by Guizhou Medical University and were approved by the Institutional Animal Care and Use Committee.\nTo evaluate the in vivo efficacy of MR-22, we used a mice peritonitis model. A total of 60 mice were divided into three groups: treatment group (10 mg/kg MR-22, intraperitoneal injection), positive control group (10 mg/kg imipenem, intraperitoneal injection), and normal control group (PBS, intraperitoneal injection). Peritonitis was induced by intraperitoneal injection of 1.0 × 10^8 CFU bacterial inoculum in 0.2 mL of E. coli E19. Survival rates were recorded every 12 h for 7 days.\nTo study the protective effects of MR-22, 10 mice in each group were sacrificed, and peritoneal lavage fluid, blood, liver, and kidney were collected 36 h after administration. The number of colonies in peritoneal lavage fluid and blood were determined by culturing on LB agar, while the tissues were fixed in 4% paraformaldehyde and subjected to hematoxylin and eosin staining to study the morphology."}
{"substance": "H-MAKRRKKAKKKAKKAKKRRRRR-NH2 [MR-22]", "values": [{"measurement": "bacterial content in the peritoneal lavage fluid", "setting": "E19 peritonitis, 10 mg/kg 1 h after infection, after 36 h, ten mice per group, control group 8.73 ± 0.38", "value": "7.23 ± 0.36", "unit": "Log10CFU/mL"}, {"measurement": "72-h survival rate", "setting": "peritonitis by 1.0 × 10^8 CFU E. coli E19 i.p., 10 mg/kg intraperitoneal injection, infected group 0%", "value": 40, "unit": "%"}]}
